Data taken from publication PMC3605045, “GH1-family 6-P-β-glucosidases from human microbiome lactic acid bacteria” (Acta Crystallographica Section D: Biological Crystallography, 2013).

Columns and labels:
LpPgb1 = molecular target: T1, LpPgb1 (Lactiplantibacillus plantarum, UniProt F9UU25); experiment: G6PDH-coupled NADPH absorbance assay ([…] nm); format: biochemical; conditions: 0.1 M HEPES-NaOH pH 8.0, 2 mM NADP+, 298 K; native enzyme 0.02 µM
T1 construct: gene pbg1; full length Met1-Glu478, 478 residues, ~55 kDa, homodimer; His6 cut by TEV, SNA- left at N-terminus; E. coli BL21 (DE3) Magic, pMCSG7

SmBgl = molecular target: T2, SmBgl (Streptococcus mutans, UniProt Q8DT00); experiment: X-ray crystal structure, […] Å; format: binding; conditions: crystallised with 5 mM 6'-P-gentiobiose; product in phosphate and -1 subsites
T2 construct: gene bgl; full length, 477 residues, ~55 kDa, homodimer; His6 cut by TEV, SNA- left at N-terminus; E. coli BL21 (DE3) Magic, pMCSG7; SeMet-labelled protein in kinetic assays

| SMILES | G6PDH-coupled NADPH absorbance assay (340 nm) (LpPgb1) | X-ray crystal structure, 1.48 Å (SmBgl) |
| --- | --- | --- |
| O=P(O)(O)OC[C@H]1O[C@@H](O[C@H]2[C@H](O)[C@@H](O)C(O)O[C@@H]2CO)[C@H](O)[C@@H](O)[C@@H]1O (stereo partly drawn) [6′-P-cellobiose] | Both enzymes showed hydrolytic activity towards all of these substrates | – |
| O=P(O)(O)OC[C@H]1O[C@@H](OC[C@H]2OC(O)[C@H](O)[C@@H](O)[C@@H]2O)[C@H](O)[C@@H](O)[C@@H]1O (stereo partly drawn) [6′-P-gentiobiose] | Both enzymes showed hydrolytic activity towards all of these substrates | – |
| O=P(O)(O)OC[C@H]1OC(O)[C@H](O)[C@@H](O)[C@@H]1O (stereo partly drawn) [BG6, 6-P-β-glucose] | – | two BG6 ligands |
